What follows are compounds tested against T1, human orexin-1 receptor (Homo sapiens, UniProt O43613) (assay: Intracellular calcium (FLIPR) antagonist assay, CHO cells expressing human orexin-1 receptor, 3 nM orexin-A). Conditions: CHO, 1 uM compound, orexin-A 3 nM, read-out: OXIR % Inh. @ 1 uM.
T1 construct: expressed in transfected cells; host or cells: CHO cells (G418 selection)
T1 sequence (O43613 1-425): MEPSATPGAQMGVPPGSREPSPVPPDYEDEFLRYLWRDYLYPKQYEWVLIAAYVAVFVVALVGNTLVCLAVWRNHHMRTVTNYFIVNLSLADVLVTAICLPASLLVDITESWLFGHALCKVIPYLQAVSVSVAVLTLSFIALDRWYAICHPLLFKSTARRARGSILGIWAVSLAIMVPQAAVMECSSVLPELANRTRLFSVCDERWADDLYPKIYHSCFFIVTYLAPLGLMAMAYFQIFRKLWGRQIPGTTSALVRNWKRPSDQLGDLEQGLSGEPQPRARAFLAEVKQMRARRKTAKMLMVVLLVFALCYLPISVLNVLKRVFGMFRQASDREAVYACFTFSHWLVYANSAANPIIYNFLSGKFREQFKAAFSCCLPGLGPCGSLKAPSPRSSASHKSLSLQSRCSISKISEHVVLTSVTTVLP
Assay type: cell-based
Protocol: (§1) Antagonistic activities on both orexin receptors (i.e., to identify Orexin Receptor Antagonists) have been measured for each example compound using the in vitro assays (intracellular calcium measurements) as described herein. Other assays may also be used to identify Orexin Receptor Antagonists as would be understood by those of ordinary skill in the art. Chinese hamster ovary (CHO) cells expressing the human orexin-1 receptor and the human orexin-2 receptor, respectively, are grown in culture medium (Ham F-12 with L-Glutamine) containing 300 μg/mL G418, 100 U/mL penicillin, 100 μg/mL streptomycin and 10% heat inactivated fetal calf serum (FCS). The cells are seeded at 20′000 cells/well into 384-well black clear bottom sterile plates (Greiner). The seeded plates are incubated overnight at 37° C. in 5% CO2. Human orexin-A as an agonist is prepared as 1 mM stock solution in MeOH: water (1:1), diluted in HBSS containing 0.1% bovine serum albumin (BSA), NaHC03: 0.375 g/L and 20 mM HEPES for use in the assay at a final concentration of 3 nM.
(§2) Antagonists were prepared as 10 mM stock solution in DMSO, then diluted in 384-well plates using DMSO followed by a transfer of the dilutions into in HBSS containing 0.1% bovine serum albumin (BSA), NaHC03: 0.375 g/L and 20 mM HEPES. On the day of the assay, 50 μL of staining buffer (HBSS containing 1% FCS, 20 mM HEPES, NaHC03: 0.375 g/L, 5 mM probenecid (Sigma) and 3 μM of the fluorescent calcium indicator fluro-4 AM (1 mM stock solution in DMSO, containing 10% pluronic) is added to each well. The 384-well cell-plates are incubated for 50 min at 37° C. in 5% C02 followed by equilibration at RT for 30 min before measurement. Within the Fluorescent Imaging Plate Reader (FLIPR Tetra, Molecular Devices), potential Orexin Receptor Antagonists were added to the plate in a volume of 10 μl/well, incubated for 120 min and finally 10 μL/well of agonist is added. Fluorescence was measured for each well at 1 second intervals, and the height of each fluorescence peak compared to the height of the fluorescence peak induced by 3 nM orexin-A with vehicle in place of antagonist. The IC50 value (the concentration of compound needed to inhibit 50% of the agonistic response) was determined and normalized using the obtained IC50 value of an on-plate reference compound. Optimized conditions were achieved by adjustment of pipetting speed and cell splitting regime. The calculated IC50 values fluctuate depending on the daily cellular assay performance, as is known to those skilled in the art. In the case where IC50 values have been determined several times for the same compound, the geometric mean has been given.
`COc1ccc(N2CC[C@@H](C)N(C(=O)c3nn4c(c3-c3ccccc3)OCCC4)CC2)nc1` [Example 79] showed an inhibition at 1 µM of 45%.
For `COc1ccc(N2CC[C@@H](C)N(C(=O)c3nn4cccnc4c3-c3ccccc3)CC2)nc1` [Example 80], the inhibition at 1 µM was 78%.
`C[C@@H]1CCN(c2cnc(C(F)(F)F)cn2)CCN1C(=O)c1nn2c(c1-c1ccccc1)COCC2` [Example 82] was tested, and the inhibition at 1 µM was 39%.
`C[C@@H]1CCN(c2cnc(C(F)(F)F)cn2)CCN1C(=O)c1nc2ccccn2c1-c1ccccc1` [Example 83] was tested, and the inhibition at 1 µM was 69%.
`C[C@@H]1CCN(c2cnc(C(F)(F)F)cn2)CCN1C(=O)c1nn2c(c1-c1ccccc1)OCCC2` [Example 84] was tested, and the inhibition at 1 µM was 71%.
`C[C@@H]1CCN(c2cnc(C(F)(F)F)cn2)CCN1C(=O)c1nn2cccnc2c1-c1ccccc1` [Example 85] showed an inhibition at 1 µM of 93%.
In the case of `C[C@@H]1CCN(c2cnc(C(F)(F)F)cn2)CCN1C(=O)c1nn2ccccc2c1-c1ccccc1` [Example 86], the inhibition at 1 µM is reported as 89%.
Work on `C[C@@H]1CCN(c2cnc(C(F)(F)F)cn2)CCN1C(=O)c1c(-c2ccccn2)nn2ccccc12` [Example 87] yielded an inhibition at 1 µM of 83%.
Work on `C[C@@H]1CCN(c2cnc(C(F)(F)F)cn2)CCN1C(=O)c1c(-c2ncccn2)nn2ccccc12` [Example 88] yielded an inhibition at 1 µM of 51%.
`C[C@@H]1CCN(c2cnc(C(F)(F)F)cn2)CCN1C(=O)c1c(-c2ccccc2)nn2c1COCC2` [Example 89] showed an inhibition at 1 µM of 25%.
In the case of `C[C@@H]1CCN(c2cnc(C(F)(F)F)cn2)CCN1C(=O)c1c(-c2ccccc2)nn2ccccc12` [Example 90], the inhibition at 1 µM is reported as 95%.
Work on `C[C@@H]1CN(c2cnc(C(F)(F)F)cn2)CCCN1C(=O)c1c(-c2ccccc2)nn2cccnc12` [Example 91] yielded an inhibition at 1 µM of 87%.
`COc1ccc(N2CC[C@@H](C)N(C(=O)c3c(-c4ncccn4)nn4ccccc34)CC2)nc1` [Example 92] gave an inhibition at 1 µM of 25%.
Work on `C[C@@H]1CCN(c2nc3cc(Cl)ccc3o2)CCN1C(=O)c1nn2cccnc2c1-c1ccccn1` [Example 96] yielded an inhibition at 1 µM of 100%.
With `C[C@@H]1CCN(c2ccc(C(F)(F)F)cn2)CCN1C(=O)c1nn2cccnc2c1-c1ccccn1` [Example 97] the inhibition at 1 µM was 98%.
Compound `C[C@@H]1CCN(c2cnc(C(F)(F)F)cn2)CCN1C(=O)c1nn2cccnc2c1-c1ccccn1` [Example 98] has an inhibition at 1 µM of 57%.
Compound `Cc1cc(C)nc(N2CC[C@@H](C)N(C(=O)c3nn4cccnc4c3-c3ccccn3)CC2)n1` [Example 99] has an inhibition at 1 µM of 45%.
For `C[C@@H]1CCN(c2nc3cc(Cl)ccc3o2)CCN1C(=O)c1ccnn1-c1ccccc1` [Example 100], the inhibition at 1 µM was 54%.
With `C[C@@H]1CCN(c2ccc(C(F)(F)F)cn2)CCN1C(=O)c1ccnn1-c1ccccc1` [Example 101] the inhibition at 1 µM was 19%.

What follows are compounds tested against T2, human orexin-2 receptor (Homo sapiens, UniProt O43614) (assay: Intracellular calcium (FLIPR) antagonist assay, CHO cells expressing human orexin-2 receptor, 3 nM orexin-A). Conditions: CHO, 1 uM compound, orexin-A 3 nM, read-out: OX2R % Inh. @ 1uM.
T2 construct: expressed in transfected cells; host or cells: CHO cells (G418 selection)
T2 sequence (O43614 1-444): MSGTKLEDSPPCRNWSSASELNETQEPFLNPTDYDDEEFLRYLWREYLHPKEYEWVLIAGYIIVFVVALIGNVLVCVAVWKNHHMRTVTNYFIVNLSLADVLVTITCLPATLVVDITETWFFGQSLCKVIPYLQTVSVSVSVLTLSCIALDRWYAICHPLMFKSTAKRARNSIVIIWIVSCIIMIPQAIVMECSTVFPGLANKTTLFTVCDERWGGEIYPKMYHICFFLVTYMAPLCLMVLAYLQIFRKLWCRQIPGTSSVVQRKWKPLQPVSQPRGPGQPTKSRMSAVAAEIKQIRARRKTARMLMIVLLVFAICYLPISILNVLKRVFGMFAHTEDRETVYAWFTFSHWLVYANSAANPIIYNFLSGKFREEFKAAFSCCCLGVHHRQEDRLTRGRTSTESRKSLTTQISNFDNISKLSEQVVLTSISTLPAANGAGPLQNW
Assay type: cell-based
Protocol: as §1, §2
Work on `COc1ccc(N2CC[C@@H](C)N(C(=O)c3nn4c(c3-c3ccccc3)OCCC4)CC2)nc1` [Example 79] yielded an inhibition at 1 µM of 21%.
Work on `COc1ccc(N2CC[C@@H](C)N(C(=O)c3nn4cccnc4c3-c3ccccc3)CC2)nc1` [Example 80] yielded an inhibition at 1 µM of 39%.
`C[C@@H]1CCN(c2cnc(C(F)(F)F)cn2)CCN1C(=O)c1nn2c(c1-c1ccccc1)COCC2` [Example 82] gave an inhibition at 1 µM of 2%.
With `C[C@@H]1CCN(c2cnc(C(F)(F)F)cn2)CCN1C(=O)c1nc2ccccn2c1-c1ccccc1` [Example 83] the inhibition at 1 µM was 27%.
For `C[C@@H]1CCN(c2cnc(C(F)(F)F)cn2)CCN1C(=O)c1nn2c(c1-c1ccccc1)OCCC2` [Example 84], the inhibition at 1 µM was 27%.
For `C[C@@H]1CCN(c2cnc(C(F)(F)F)cn2)CCN1C(=O)c1nn2cccnc2c1-c1ccccc1` [Example 85], the inhibition at 1 µM was 52%.
Compound `C[C@@H]1CCN(c2cnc(C(F)(F)F)cn2)CCN1C(=O)c1nn2ccccc2c1-c1ccccc1` [Example 86] has an inhibition at 1 µM of 63%.
For `C[C@@H]1CCN(c2cnc(C(F)(F)F)cn2)CCN1C(=O)c1c(-c2ccccn2)nn2ccccc12` [Example 87], the inhibition at 1 µM was 57%.
`C[C@@H]1CCN(c2cnc(C(F)(F)F)cn2)CCN1C(=O)c1c(-c2ncccn2)nn2ccccc12` [Example 88] gave an inhibition at 1 µM of 29%.
In the case of `C[C@@H]1CCN(c2cnc(C(F)(F)F)cn2)CCN1C(=O)c1c(-c2ccccc2)nn2c1COCC2` [Example 89], the inhibition at 1 µM is reported as 10%.
`C[C@@H]1CCN(c2cnc(C(F)(F)F)cn2)CCN1C(=O)c1c(-c2ccccc2)nn2ccccc12` [Example 90] gave an inhibition at 1 µM of 80%.
Compound `C[C@@H]1CN(c2cnc(C(F)(F)F)cn2)CCCN1C(=O)c1c(-c2ccccc2)nn2cccnc12` [Example 91] has an inhibition at 1 µM of 74%.
In the case of `COc1ccc(N2CC[C@@H](C)N(C(=O)c3c(-c4ncccn4)nn4ccccc34)CC2)nc1` [Example 92], the inhibition at 1 µM is reported as 13%.
Compound `C[C@@H]1CCN(c2nc3cc(Cl)ccc3o2)CCN1C(=O)c1nn2cccnc2c1-c1ccccn1` [Example 96] has an inhibition at 1 µM of 71%.
With `C[C@@H]1CCN(c2ccc(C(F)(F)F)cn2)CCN1C(=O)c1nn2cccnc2c1-c1ccccn1` [Example 97] the inhibition at 1 µM was 51%.
`C[C@@H]1CCN(c2cnc(C(F)(F)F)cn2)CCN1C(=O)c1nn2cccnc2c1-c1ccccn1` [Example 98] showed an inhibition at 1 µM of 26%.
`Cc1cc(C)nc(N2CC[C@@H](C)N(C(=O)c3nn4cccnc4c3-c3ccccn3)CC2)n1` [Example 99] gave an inhibition at 1 µM of 56%.
Compound `C[C@@H]1CCN(c2nc3cc(Cl)ccc3o2)CCN1C(=O)c1ccnn1-c1ccccc1` [Example 100] has an inhibition at 1 µM of 57%.
`C[C@@H]1CCN(c2ccc(C(F)(F)F)cn2)CCN1C(=O)c1ccnn1-c1ccccc1` [Example 101] was tested, and the inhibition at 1 µM was 32%.

From US20260256807A1, “SUBSTITUTED PYRAZOLES AND IMIDAZOLES AS OREXIN RECEPTOR ANTAGONISTS COMPOSITION, METHODS FOR TREATING NEUROLOGICAL AND PSYCHOLOGICAL DISORDERS” (HAGER BIOSCIENCES, LLC, priority 2022, published 2026)
